Laboratory results reported in patent USRE30731E, “Enkephalin analogues” (priority 1977, dated 1981).

Assays:
mouse vas deferens = mouse vas deferens (M.V.D.) assay; assay type: cell-based; settings: Met Enkephalin = 100%
Text: (II)M.V.D. stands for mouse vas deferens
Kosterhtz, H. W. & Leslie. F. M. Br. J. Pharmac. 53, 371, 381,

rat brain membranes = test: radio receptor assay (R.R.A.): displacement of tritiated naloxone from rat brain membranes; assay type: binding; settings: based on concentration displacing 50% of (3H)naloxone (1 nM) from rat brain membranes; 0.1 M NaCl/50 mM Tris pH 7.4; 15 minutes; bacitracin
Method: (III)R.R.A. stands for radio receptor assay; based on the concentration
required to displace 50% of tritiated naloxone from rat brain membranes.
The displacements .[.replacements.]. were carried out against (^3
H)naloxane (lnM) in 0.1 M sodium chloride/50mM Tris buffer at pH 7.4;
incubations were for 15 minutes in the .Iadd.presence
.Iaddend..[.absence.]. of bacitracin. For general reference to the method
see literature as discussed in "Opiate Receptor Mechanisms". S. H. Snyder
and S. Matthysse eds, MIT Press, 1975.

rats = test: tail flick assay, intraventricular administration; assay type: in vivo, rat; settings: administered intraventricularly to rats
Text: Also, we have indications of in vivo analgesic effects of the analogues.

5-Amino-6-(4'-hdyroxyphenyl)-hexanoyl-glycyl-L-phenylalanyl-L-methionine a mide [Analogue H211]
Activity Relative to Met Enkephalin, M.V.D. (mouse vas deferens): 0.9% | Activity Relative to Met Enkephalin, R.R.A. (rat brain membranes): 8% | analgesia (tail flick assay) (rats): analgesia lasting for several minutes
